# Measured values as given in patent publication US20060257481A1, “Sustained release formulation and dosing schedule of leukotriene synthesis inhibitor for human therapy” (deCODE Genetics ehf., priority 2005, published 2006).
# Several values for one entry are separate records, joined by “and”; a condition that tells them apart may be missing. Identical values can stand only once.
# Columns and labels:
# [1] = test system: LTE4 in urine; test: Study DG-031-201: LTE4 in urine; format: in vivo, human
# Experimental: (§1) Patients who met the study eligebility criteria were enrolled and randomized into 3 different dose-level groups: (1) 64 patients on 250 mg/day therapy with DG-031 (250 mg q.d.), vs placebo; (2) 64 patients on 500 mg/day therapy with DG-031 (250 mg b.i.d.) vs placebo; and (3) 63 patients on 750 mg/day therapy with DG-031 (250 mg t.i.d.) vs placebo. […] All patients received 3 tablets per day. Treatment periods, 4 weeks in duration each, were separated by a 2-week washout period. The placebo tablets were identical in shape, color, form and taste to the active tablets except that they contained no active drug ingredients. Treatment with DG-031 or placebo was in addition to the subject's standard care, including all medications and treatment plan as prescribed by the subject's cardiologist prior to enrolment. A total of 191 subjects were enrolled, with 172 completing all 8 visits or 8 patients short of the target of 180 patients.
# The primary objective was to determine whether the FLAP inhibitor has a statistically significant effect, compared to placebo, on one or more biomarkers of MI risk, including: (1) ionomycin-induced LTB4 and MPO release by neutrophils ex vivo; (2) MPO, CRP, N-tyrosine, Lp-PLA2 or amyloid A in serum, or (3) LTE4 in urine. The secondary objective was to determine whether the effect of DG-031 was dose-dependent. The tertiary objective was to assess other biomarkers (See Results). Evaluation of safety and tolerability of the drug was also a primary endpoint.
# All data were analyzed according to a pre-established statistical analysis plan (SAP) and by intention-to-treat (ITT). Each arm of the study, as well as pooled sets (combining dose levels), was considered for the primary analysis. Each such set is an AB/BA cross-over design and in the primary analysis of efficacy, the levels of biomarkers of MI risk at the end of the treatment periods (visits 4 and 7) were used as primary response variables. The difference between DG-031 and placebo treatment was the primary outcome, assessed separately for each of the biomarkers. […]
# [2] = test system: Amyloid A; test: Study DG-031-201 cross-over trial: Amyloid A in serum; format: in vivo, human; conditions: week 6, p=0.05
# Experimental: as §1, with “patients. […]” for “patients.”
# All data were analyzed according to a pre-established statistical analysis plan (SAP) and by intention-to-treat (ITT). […] The difference between DG-031 and placebo treatment was the primary outcome, assessed separately for each of the biomarkers. […]
# [3] = test system: LTB4 production in human whole blood; test: In vitro LTB4 production in human whole blood after ionomycin stimulation; format: cell-based
# Experimental: Neutrophils and other cells in human whole blood respond in vitro to activation by a calcium ionophore (e.g., ionomycin), with an increase in LTB4 production and with coupled release of MPO stimulated in part by LTB4 production in the assay. The effect of DG-031 on the capacity for production of LTB4 in vitro after ionomycin stimulation was evaluated at concentrations ranging from 0.1 μM up to 240 μM.
structure (smiles),measurement,setting,value
"O=C(O)[C@@H](c1ccc(OCc2ccc3ccccc3n2)cc1)C1CCCC1 [DG-031, (R)-(+)-alpha-cyclopentyl-4-(2-quinolinylmethoxy)-Benzeneacetic acid]","Carry-over effect, LTE4 in urine","[1]; difference visit 2 to visit 5, 500 and 750 mg/day vs placebo cohort",−0.06
same,Increase of urine levels of LTE4,"[1]; highest dose, [15%,40%], p<0.001",27%
same,Increase of urine levels of LTE4,"[1]; pooled dose set 500 mg and 750 mg, [13%,30%]",21%
same,Reduction of SAA,[2],15%
same,Expected reduction of capacity for LTB4 production at peak concentration,"[3]; 250 mg TID peak, assuming ex vivo parallels in vitro response",about 65%
same,Expected reduction of capacity for LTB4 production at Cmin,"[3]; 250 mg TID, concentrations above 2-3 μg/ml, assuming ex vivo parallels in vitro response",≥ 30%
same,IC50,"[3]; human whole blood, ionomycin stimulation, read-out: in vitro IC50, capacity for LTB4 production",~3 µM and ~1.1 µg/mL
